Data: patent US9617256B2 (priority 2007, dated 2017)
Values after ≈ are worked out from the molar mass of the structure shown. Like-named read-outs stand apart in the source and are kept apart here.

Legend:
[1] = test system: ASAU001 (laboratory strain of S. aureus, ATCC29213); assay: MIC broth microdilution, ASAU001; assay type: cell-based; settings: for MIC: Staphylococcus aureus, ATCC29213, read-out: MIC ASAU001
Summary of the method: (§1)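 Growth inhibition was scored by CLSI broth microdilution using cation-adjusted Mueller-Hinton broth and a final inoculum between 3×10^5 and 7×10^5 CFU/mL, incubated 18-24 hours at 35° C.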

AECO001 (ATCC25922) = assay: MIC broth microdilution, AECO001; assay type: cell-based, E. coli; settings: for MIC: Escherichia coli
Summary of the method: as §1

[2] = test system: AABA1060 (clinical isolate of Acinetobacter baumannii); assay: MIC broth microdilution, AABA1060; assay type: cell-based; settings: for MIC: Acinetobacter baumannii, read-out: MIC AABA1060
Summary of the method: as §1

[3] = test system: APAE006 (strain of P. aeruginosa in which all efflux pumps are inactivated); assay: microbe, parasite or virus in culture; assay type: cell-based; settings: for MIC: Pseudomonas aeruginosa
Summary of the method: (§2)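 For the efflux-deficient P. aeruginosa APAE006, one set of MICs includes polymyxin B nonapeptide at 8 micrograms per milliliter.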

AECO001 HSA AGP = assay: MIC broth microdilution, AECO001 HSA AGP; assay type: cell-based, E. coli; settings: for MIC: Escherichia coli
Method: Bacterial isolates were cultivated from −70° C. frozen stocks by overnight passages at 35° C. in ambient air on Mueller-Hinton agar (Beckton Dickinson, Franklin Lakes, N.J.). Clinical isolates tested were obtained from various geographically diverse hospitals in the US and abroad (Focus Diagnostics, Herndon, Va. and JMI, North Liberty, Iowa). Quality control strains were from the American Type Culture Collection (ATCC; Rockville, Md.). Additional primary panel strains were generated using standard molecular biology techniques.
Minimum Inhibitory Concentrations (MICs) were determined by the broth microdilution method in accordance with the Clinical and Laboratory Standards Institute (CLSI) guidelines. In brief, organism suspensions were adjusted to a 0.5 McFarland standard to yield a final inoculum between 3×10^5 and 7×10^5 colony-forming units (CFU)/mL. Drug dilutions and inocula were made in sterile, cation adjusted Mueller-Hinton Broth (Beckton Dickinson). An inoculum volume of 100 μL was added to wells containing 100 μL of broth with 2-fold serial dilutions of drug. All inoculated microdilution trays were incubated in ambient air at 35° C. for 18-24 hours. […] Performance of the assay was monitored by the use of laboratory quality-control strains and levofloxacin, a compound with a defined MIC spectrum, in accordance with CLSI guidelines.
*AECO001 is ATCC25922, AECO063 is ATCC25922 bearing an acrAB mutation, APAE001 is ATCC27853, APAE006 is a strain of P. aeruginosa in which all efflux pumps are inactivated, APAE006+PMBN indicates MICs with the indicated strain in the presence of 8 micrograms per milliliter of polymyxin B nonapeptide, AABA1060 is a clinical isolate of Acinetobacter baumannii, ASAU001 is a laboratory strain of S. aureus (ATCC29213).

APAE001 (ATCC27853) = assay: MIC broth microdilution, APAE001; assay type: cell-based, P. aeruginosa; settings: for MIC: Pseudomonas aeruginosa
Summary of the method: as §1

[4] = test system: AECO063 (ATCC25922 bearing an acrAB mutation); assay: microbe, parasite or virus in culture; assay type: cell-based, E. coli; settings: for MIC: Escherichia coli, ATCC25922, read-out: MIC AECO063
Summary of the method: as §1

[5] = test system: APAE006 in the presence of 8 micrograms per milliliter of polymyxin B nonapeptide; assay type: cell-based, P. aeruginosa; settings: APAE006 with 8 micrograms per milliliter polymyxin B nonapeptide
Summary of the method: as §2

[6] = ATCC25922, read-out: MIC AECO001
[7] = read-out: MIC APAE006, P. aeruginosa, all efflux pumps inactivated
[8] = ATCC27853, read-out: MIC APAE001, APAE001 is ATCC27853
[9] = ATCC25922, read-out: MIC AECO001 HSA AGP
[10] = read-out: MIC APAE006, APAE006, all efflux pumps inactivated
[11] = ATCC27853, read-out: MIC APAE001, APAE001 (ATCC27853)

Row | Structure (SMILES) | MIC [1] [µg/mL] | MIC (AECO001 (ATCC25922); [6]) [µg/mL] | MIC [2] [µg/mL] | MIC [3, 7] [µg/mL] | MIC (AECO001 HSA AGP) [µg/mL] | MIC (APAE001 (ATCC27853); [8]) [µg/mL] | MIC [4] [µg/mL] | MIC ASAU001 ([1]; S. aureus ATCC29213) | MIC AECO001 (AECO001 (ATCC25922); AECO001 is ATCC25922) | MIC AABA1060 ([2]; clinical isolate of Acinetobacter baumannii) | MIC APAE006 ([3]; P. aeruginosa, all efflux pumps inactivated) | MIC AECO001 HSA AGP (AECO001 HSA AGP) | MIC APAE001 (APAE001 (ATCC27853); APAE001 is ATCC27853) | MIC AECO063 ([4]; ATCC25922 bearing an acrAB mutation) | MIC (AECO001 (ATCC25922); [9]) [µg/mL] | MIC [3, 10] [µg/mL] | MIC (APAE001 (ATCC27853); [11]) [µg/mL] | MIC APAE006 + PMBN [5] | Ratio of MICs on AECO001 [Cpd (A = —CHCH3NH2)/Cpd (A = —C(CH3)2NH2)] (AECO001 (ATCC25922); MIC of paired compound with A = —CHCH3NH2 divided by MIC of compound with A = —C(CH3)2NH2, n=2 data, pairs identical except for the A moiety)
1 | C[C@@H](O)[C@H](NC(=O)c1ccc(Cc2ccc(CN3CCOCC3)cc2)cc1)C(=O)NO [Example 48-5, N-((1S,2R)-2-Hydroxy-1-hydroxycarbamoyl-propyl)-4-(4-morpholin-4-ylmethyl-benzyl)-benzamide] | > 64 | > 64 | > 64 | > 64 | > 64 | > 64 | > 64 | – | – | – | – | – | – | – | – | – | – | – | –
2 | C[C@@H](O)[C@H](NC(=O)c1ccc(SCc2ccc(CN3CCOCC3)cc2)cc1)C(=O)NO [Example 46-4, N-((1S,2R)-2-Hydroxy-1-hydroxycarbamoyl-propyl)-4-(4-morpholin-4-ylmethyl-benzylsulfanyl)-benzamide] | > 64 | 16 to 64 (≈ 34.8 to 139 µM) | > 64 | < 2 | 16 to 64 (≈ 34.8 to 139 µM) | 16 to 64 (≈ 34.8 to 139 µM) | 2 to 16 (≈ 4.35 to 34.8 µM) | – | – | – | – | – | – | – | – | – | – | – | –
3 | CC(C)(O)[C@H](NC(=O)c1ccc(C#CC#Cc2cccnc2)cc1)C(=O)NO [Example 88-5] | 16 to 64 (≈ 42.4 to 170 µM) | < 2 | < 2 | < 2 | < 2 | 2 to 16 (≈ 5.3 to 42.4 µM) | < 2 | – | – | – | – | – | – | – | – | – | – | – | –
4 | C[C@@H](N)[C@H](NC(=O)c1ccc(CCc2ccc(CN3CCOCC3)cc2)cc1)C(=O)NO [Example 137-1] | – | – | – | – | – | – | – | D (MIC's of greater than 64.0 μg/mL = D) | A (MIC's of 2.0 μg/mL or less = A) | D (MIC's of greater than 64.0 μg/mL = D) | A (MIC's of 2.0 μg/mL or less = A) | B (MIC's of greater than 2.0 μg/mL to 16.0 μg/mL = B) | B (MIC's of greater than 2.0 μg/mL to 16.0 μg/mL = B) | A (MIC's of 2.0 μg/mL or less = A) | – | – | – | – | –
5 | CC(C)(N)[C@H](NC(=O)c1ccc(C#C/C=C/c2ccccc2)cc1)C(=O)NO [Example 104-5] | 2 to 16 (≈ 5.3 to 42.4 µM) | < 2 | < 2 | – | – | – | < 2 | – | – | – | – | – | – | – | < 2 | < 2 | 2 to 16 (≈ 5.3 to 42.4 µM) | A (MIC's of 2.0 μg/mL or less = A) | –
6 | CC(C)(O)[C@H](NC(=O)c1ccc(C#CC#Cc2cccc(F)c2)cc1)C(=O)NO [Example 82-24] | 2 to 16 (≈ 5.07 to 40.6 µM) | < 2 | < 2 | – | – | – | < 2 | – | – | – | – | – | – | – | 2 to 16 (≈ 5.07 to 40.6 µM) | < 2 | 2 to 16 (≈ 5.07 to 40.6 µM) | A (MIC's of 2.0 μg/mL or less = A) | –
7 | CC(C)(N)[C@H](NC(=O)c1ccc(C#CC#Cc2ccc(N)cc2)cc1)C(=O)NO [Example 82-25] | 16 to 64 (≈ 41 to 164 µM) | < 2 | < 2 | – | – | – | < 2 | – | – | – | – | – | – | – | < 2 | < 2 | < 2 | A (MIC's of 2.0 μg/mL or less = A) | 1.6
8 | C[C@@H](N)[C@H](NC(=O)c1ccc(C#C/C=C/c2ccc(F)cc2)cc1)C(=O)NO [Example 106-6] | 16 to 64 (≈ 41.9 to 168 µM) | < 2 | 2 to 16 (≈ 5.24 to 41.9 µM) | – | – | – | < 2 | – | – | – | – | – | – | – | 16 to 64 (≈ 41.9 to 168 µM) | < 2 | 2 to 16 (≈ 5.24 to 41.9 µM) | A (MIC's of 2.0 μg/mL or less = A) | –
9 | C[C@@H](N)[C@H](NC(=O)c1ccc(C#C/C=C/c2cccnc2)cc1)C(=O)NO [Example 106-4] | 16 to 64 (≈ 43.9 to 176 µM) | 2 to 16 (≈ 5.49 to 43.9 µM) | 16 to 64 (≈ 43.9 to 176 µM) | – | – | – | < 2 | – | – | – | – | – | – | – | 16 to 64 (≈ 43.9 to 176 µM) | < 2 | 2 to 16 (≈ 5.49 to 43.9 µM) | A (MIC's of 2.0 μg/mL or less = A) | –
10 | CC(C)(N)C(NC(=O)c1ccc(C#CC#CC2CC2)cc1)C(=O)NO (stereo not drawn) [Example 91-10] | 16 to 64 (≈ 47.1 to 189 µM) | < 2 | < 2 | – | – | – | < 2 | – | – | – | – | – | – | – | < 2 | < 2 | < 2 | A (MIC's of 2.0 μg/mL or less = A) | –
11 | C[C@@H](O)[C@H](NC(=O)c1ccc(/C=C/C#Cc2ccccc2F)cc1)C(=O)NO [Example 114-12] | 16 to 64 (≈ 41.8 to 167 µM) | < 2 | < 2 | – | – | – | < 2 | – | – | – | – | – | – | – | 2 to 16 (≈ 5.23 to 41.8 µM) | < 2 | 2 to 16 (≈ 5.23 to 41.8 µM) | A (MIC's of 2.0 μg/mL or less = A) | –
12 | CC(C)C#C/C=C/c1ccc(C(=O)N[C@H](C(=O)NO)C(C)(C)N)cc1 [Example 114-19] | 2 to 16 (≈ 5.82 to 46.6 µM) | < 2 | < 2 | – | – | – | < 2 | – | – | – | – | – | – | – | 2 to 16 (≈ 5.82 to 46.6 µM) | < 2 | < 2 | A (MIC's of 2.0 μg/mL or less = A) | –
13 | C[C@@H](N)[C@H](NC(=O)c1ccc(C#CC#Cc2cccs2)cc1)C(=O)NO [Example 88-12] | 2 to 16 (≈ 5.44 to 43.5 µM) | < 2 | < 2 | – | – | – | < 2 | – | – | – | – | – | – | – | 2 to 16 (≈ 5.44 to 43.5 µM) | < 2 | < 2 | A (MIC's of 2.0 μg/mL or less = A) | –
14 | CC(C)/C=C/C#Cc1ccc(C(=O)N[C@H](C(=O)NO)[C@@H](C)N)cc1 [Example 107-5] | 2 to 16 (≈ 6.07 to 48.6 µM) | < 2 | < 2 | – | – | – | < 2 | – | – | – | – | – | – | – | 2 to 16 (≈ 6.07 to 48.6 µM) | < 2 | 2 to 16 (≈ 6.07 to 48.6 µM) | A (MIC's of 2.0 μg/mL or less = A) | –
15 | C[C@@H](NCC(=O)N[C@H](C)[C@H](NC(=O)c1ccc(C#Cc2ccccc2)cc1)C(=O)NO)c1ccccc1 [Example 132-6] | 16 to 64 (≈ 32.1 to 128 µM) | 2 to 16 (≈ 4.01 to 32.1 µM) | 16 to 64 (≈ 32.1 to 128 µM) | – | – | – | < 2 | – | – | – | – | – | – | – | 16 to 64 (≈ 32.1 to 128 µM) | < 2 | 16 to 64 (≈ 32.1 to 128 µM) | A (MIC's of 2.0 μg/mL or less = A) | –
